Results from patent EP1619197A1, “Substituted Pyrido[3',2':4,5]thieno[3,2-d]pyrimidin-2,4(1H,3H)diones and -4(3H)ones as well as Pyrido[3',2':4,5]furo[3,2-d]-pyrimidin-2,4(1H,3H)diones und -4(3H)ones as inhibitors of TNF-alpha release” (Curacyte Discovery GmbH, priority 2004, dated 2006).

Test system: TNFα-Freisetzung
Assay: Inhibition of TNFα release after LPS stimulation of human whole blood (ELISA)
Assay type: cell-based
Conditions: Homo sapiens, 24 h; bei 10nM; read-out: TNFα-Freisetzung hemmen
From the text: Methodenbeschreibung der Hemmung der TNFα Freisetzung nach LPS Stimulation von humanem Vollblut
Die Stimulierung isolierter Leukozyten für die Freisetzung von Zytokinen kann auf verschiedenen Wegen erfolgen. Lipopolysaccharide (LPS) stellen einen Stimulus für die Untersuchung der Freisetzung von TNFα dar. LPS ist Bestandteil bakterieller Zellwände und wird beim Abtöten der Bakterien (durch Antibiotika oder das natürliche Immunsystem) freigesetzt. LPS stimuliert insbesondere die Aktivität phagozytierender Leukozyten (Gewebsmakrophagen, Granulozyten, Monozyten) und verursacht die Infiltration von Leukozyten vom peripheren Blut in das betroffene Gewebe. Ein Zytokin von besonderer Bedeutung für diese Mechanismen ist TNFα, das in großen Mengen durch die betroffenen Zellen sezerniert wird. Hauptquelle dabei sind Monozyten und Makrophagen. TNFα initiiert und prolongiert den Entzündungsprozess im Zusammenspiel mit anderen Mediatoren.
Für die Untersuchung des Effektes auf die LPS-induzierte TNFα-Freisetzung wurde eine Methode verwendet, die von MARX et al. (Marx D, Tassabehji M, Heer S, Hüttenbrink KB, Szelenyi I (2002) Pulmonary Pharmacology & Therapeutics 15 7-15) beschrieben wurde. Die Methode in Kürze: Humanes Blut wurde von verschiedenen Spendern entnommen, durch Zusatz von 10 mM Na-Citrat ungerinnbar gemacht und 1:5 mit RPMI 1640 Zellkulturmedium verdünnt. Die Testsubstanzen wurden den Blutproben in verschiedenen Konzentrationen zugefügt. 15 Minuten später wurden die Leukozyten durch Zusatz von Lipopolysacchariden (LPS) aus Salmonella abortus equi in einer Endkonzentration von 1µg/ml stimuliert. Nach Inkubation der Testansätze für 24 Stunden bei 37°C. und unter 5% CO2 in wassergesättigter Luft, wurde das Blut zentrifugiert und die Konzentration an TNFα im zellfreien Überstand unter Verwendung eines käuflichen ELISA (BD Biosciences) nach Angaben des Herstellers exakt vermessen.

SMILES | inhibition at 0.01 µM
CCc1nc2c(sc3nc(-c4ccccc4)cc(C)c32)c(=O)[nH]1 [2-Ethyl-9-methyl-7-phenyl-pyrido[3',2':4,5]thieno[3,2-d]pyrimidin-4-on] | > 20%
Cc1cc(C)c2c(n1)sc1c(=O)[nH]c(=O)[nH]c12 [7,9-Dimethyl-pyrido[3',2':4,5]thieno[3,2-d]pyrimidin-2,4-dion] | > 20%
COc1ccc(-c2cc(C)c3c(n2)sc2c(=O)[nH]c(=O)[nH]c23)cc1OC [7-(3,4-Dimethoxyphenyl)-9-methyl-pyrido[3',2':4,5]thieno[3,2-d]pyrimidin-2,4-dion] | > 20%
COc1ccc(-c2cc(C)c3c(n2)sc2c(=O)[nH]c(=O)[nH]c23)cc1 [7-(4-Methoxyphenyl)-9-methyl-pyrido[3',2':4,5]thieno[3,2-d]pyrimidin-2,4-dion] | > 20%
CCCc1nc2c(sc3nc(-c4ccccc4)cc(-c4cccnc4)c32)c(=O)[nH]1 [7-Phenyl-2-n-propyl-9-(pyrid-3-yl)-pyrido[3',2':4,5]thieno[3,2-d]pyrimidin-4(3H)-on] | > 20%
Cc1cc(-c2ccccc2)nc2sc3c(=O)[nH]c(=O)[nH]c3c12 [9-Methyl-7-phenyl-pyrido[3',2':4,5]thieno[3,2-d]pyrimidin-2,4-dion] | > 20%

Same assay, conditions: Homo sapiens, 24 h; bei 100nM; read-out: TNFα-Freisetzung hemmen

SMILES | inhibition at 0.1 µM
O=c1[nH]c(=O)c2sc3nc(-c4ccccc4)cc(-c4ccccc4)c3c2[nH]1 [7,9-Diphenyl-pyrido[3',2':4,5]thieno[3,2-d]pyrimidin-2,4-dion] | > 10%
CSc1nc2c(sc3nc(-c4ccccc4)cc(C)c32)c(=O)[nH]1 [9-Methyl-2-methylthio-7-phenyl-pyrido[3',2':4,5]thieno[3,2-d]pyrimidin-4(3H)-on] | > 10%
Cc1c(-c2ccc([N+](=O)[O-])cc2)c(-c2ccccc2)nc2sc3c(=O)[nH]c(=O)[nH]c3c12 [9-Methyl-8-(4-nitrophenyl)-7-phenyl-pyrido[3',2':4,5]thieno[3,2-d]pyrimidin-2,4(1H,3H)-dion] | > 10%

Same assay, conditions: bei 10nM

SMILES | TNFα-Freisetzung hemmen
Cc1cc(-c2ccc(F)cc2)nc2sc3c(=O)[nH]c(=O)[nH]c3c12 [7-(4-Fluorphenyl)-9-methyl-pyrido[3',2':4,5]thieno[3,2-d]pyrimidin-2,4-dion] | > 20%
O=C(O)c1nc2c(sc3nc(-c4ccccc4)ccc32)c(=O)[nH]1 [7-Phenyl-pyrido[3',2':4,5]thieno[3,2-d]pyrimidin-4(3H)-on-2-carbonsäure] | > 20%

Same assay, conditions: bei 100nM

SMILES | TNFα-Freisetzung hemmen
Cc1nc2c(sc3nc(-c4ccc(Br)cc4)cc(C)c32)c(=O)[nH]1 [7-(4-Brom-phenyl)-2,9-dimethyl pyrido[3',2':4,5]thieno[3,2-d]pyrimidin-4(3H)-on] | > 10%
CCOC(=O)c1nc2c(sc3nc(-c4ccccc4)ccc32)c(=O)[nH]1 [7-Phenyl-pyrido[3',2':4,5]thieno[3,2-d]pyrimidin-4(3H)-on-2-carbonsäureethylester] | > 10%
